A short description of assay [1]: Fluorine nuclear relaxation times T1 and T2 and chemical shift of 5F-BAPTA with and without zinc, in water and octanol. It is filed as physicochemical. The method, then: All fluorine NMR spectra were collected with a 400 MHz Oxford/Varian Unity Plus spectrometer at 25° C. The nominal 90° pulse width was 7.8 μsec.
An equivalent volume (0.7 ml) n-octanol was added, and the mixture was shaken vigorously. The organic and aqueous phases were separated by pipette and placed in NMR tubes. To the octanol solution was added 0.1 ml deuterated methanol to provide an NMR lock signal.

For assay [2] the following is noted: for T2 bound / T2 free: 2 mM complexing agent, 400 MHz, 25° C. The method, then: All fluorine NMR spectra were collected with a 400 MHz Oxford/Varian Unity Plus spectrometer at 25° C. The nominal 90° pulse width was 7.8 μsec. Transverse relaxation times were determined by the best fit of data collected using the Carr-Purcell-Meiboom-Gill sequence supplied with the spectrometer.
A 1 M solution of Ultra Pure ZnCl2 (Sigma) was prepared and diluted in a serial fashion to produce intermediate stock solutions of concentration 100 mM and 10 mM in water. A 200 mM solution of 5-T-BAPTA (Molecular Probes) was prepared and added to aliquots of either zinc solution, as appropriate, in sufficient quantity to yield a final, fixed concentration of 2 mM of the complexing agent.

[3] abbreviates: aqueous solution of the zinc complex.
[4] abbreviates: aqueous solution without zinc, HEPES buffer, 400 MHz, 25° C.
Where [5] appears, read: Sample 2: ZnCl2 0.5 mM, MgCl2 1.5 mM.

SMILES strings stand for the structures. Read-outs that look alike come from different tables or passages of the source.

As for `O=C(O)CN(CC(=O)O)c1ccc(F)cc1OCCOc1cc(F)ccc1N(CC(=O)O)CC(=O)O` [5F-BAPTA, 1,2-bis-(2-amino-5-fluorophenoxy)ethane-N,N,N′,N′-tetraacetic acid], in assay [1], the “change of fluorine transverse relaxation time upon complexation with Zn^+2” value is listed as “large reduction”. The T1 value was found to be 0.82 ± 0.01 s in assay [1] (setting [3]), 0.82 ± 0.01 s in assay [1] (setting [4]) and 0.53 ± 0.01 s in assay [1] (zinc complex in octanol solution). Moreover, the T2 value worked out at 0.0248±0.0003 in assay [1] (setting [3]), 0.080 ± 0.003 s in assay [1] (setting [4]) and 0.013 ± 0.001 s in assay [1] (zinc complex in octanol).
`O=C(O)CN(CC(=O)O)c1ccc(C(F)(F)F)cc1OCCOc1cc(C(F)(F)F)ccc1N(CC(=O)O)CC(=O)O` [5T-BAPTA, 1,2-bis-(2-amino-5-trifluoromethylphenoxy)ethane-N,N,N′,N′-tetra acetic acid]: the T2 bound in assay [2] (Sample 1: ZnCl2 2.0 mM, MgCl2 1.0 mM, CaCl2 2.0 mM) was found to be 0.14 ± 0.03 s; in assay [2] (setting [5]), 0.265 ± 0.025 s; in assay [2] (Sample 4: ZnCl2 3.5 mM, MgCl2 0.5 mM, CaCl2 1.0 mM), 0.216 ± 0.007 s. The “T2 of the complex (Sample 1) relative to T2 of the free complexing agent (Sample 3)” value in assay [2] (Sample 1 vs Sample 3) is “⅕”. For the same compound, the T2 free was determined as 0.387 ± 0.012 s in assay [2] (setting [5]) and 0.763 ± 0.032 s in assay [2] (Sample 3: ZnCl2 0 mM, MgCl2 1.65 mM, CaCl2 3.35 mM).
